Values of other authors as cited in PMC3967229 (Marine Drugs, 2014).
Read-outs that look alike come from different tables or passages of the source. Blank lines part the entries; values can stand above or below the molecule they belong to.

Assays:
HCT116 tumor = settings: i.p.
MDA-MB-231 cells = test system: MDA-MB-231 cells; parameters: method as in PMID 22543582; settings: 10 mg/kg/day, together with dexamethasone
[1] = mouse in vivo model
[2] = rabbit in vivo model
[3] = 5 mg/kg/day
[4] = protein-assisted mechanism
[5] = not given; remark: listed apart in the source
[6] = not given; remark: listed apart in the source
[7] = parameters: method as in earlier work

Molecule: CCCCCCCC(=O)SCC/C=C/[C@@H]1CC(=O)NCc2nc(cs2)C2=N[C@@](C)(CS2)C(=O)N[C@@H](C(C)C)C(=O)O1 [largazole]
Cellular activity: low-nanomolar | HCT116 tumor growth (HCT116 tumor; colon tumor xenograft mouse model): retarding HCT116 tumor growth | Acute toxicity (HCT116 tumor; up to the highest dose tested (50 mg/kg), mouse): without acute toxicity | Invasiveness of orthotopic MDA-MB-231 tumors (MDA-MB-231 cells): reducing the invasiveness | Bone-forming activity [1]: bone-forming activity | Bone-forming activity [2]: bone-forming activity | Liver fibrosis [3]: decreased liver fibrosis | Conversion to largazole thiol in mouse serum [4]: rapidly converted

Molecule: largazole thiol
Potency against HDAC isoforms (HDACs 1, 2 and 3): subnanomolar

Volume of distribution (Vdss) [5]: 22.3 L/kg
Molecule: C/C=C1\NC(=O)[C@H]2CSSCC/C=C/[C@H](CC(=O)N[C@H](C(C)C)C(=O)N2)OC(=O)[C@H](C(C)C)NC1=O [romidepsin]

Plasma protein binding, bound to human plasma [6]: 71.3% | Clearance [7]: 55 mL/min/kg | Vdss [7]: 0.6 L/kg
Molecule: O=C(CCCCCCC(=O)Nc1ccccc1)NO [vorinostat, Suberoylanilide hydroxamic acid]
Cellular activity: micromolar
